Test [1] relates to mice fed with high-fat feed. Briefly: Lipid-lowering function test (animal test): serum lipids (HDL-C, LDL-C) of mice on high-fat feed. Format: in vivo, C57BL/6 mice. The note with it: gavage, 8 weeks. As to the method: Samples: The water-insoluble dietary fiber component ACA-DK of Antrodia cinnamomea, which is prepared as a suspension of a certain concentration and placed at 4° C. for further use.
Test animals: 40 C57BL/6 SPF-grade mice weighing 18-22 g were purchased from Shanghai JieSijie Experimental Animal Co., Ltd. (license No. SCXK20180004). They were randomly divided into 4 groups with 10 mice in each group.
Test method: In test environment, the mice were divided into the following 4 groups: Normal group NG (gavage with normal saline), model group MG (high-fat diet), positive control group PG (gavage with lovastatin) and insoluble dietary fiber group LG. Mice in normal group NG were fed with basic feed, and mice in the rest of the groups were fed with high-fat feed. For mice in insoluble dietary fiber group LG, gavage with the dietary fiber was administered once a day for 8 weeks.
Feeding conditions: Mice were raised in an IVC system with a temperature of 18-22° C. and a relative humidity of 40-70%. License No. of the laboratory animal using license is SCXK20180004. The irradiated sterile feed for mice was purchased from Jiangsu Synergy Pharmaceutical Bioengineering Co., Ltd.
Basic feed: Flour 20%, bran 25%, corn 20%, rice flour 10%, soybean meal 20%, fish meal 2%, bone meal 2%, salt 0.9%, vitamin 0.1%;
High-fat feed: Lard 10%, sucrose 5%, cholesterol 1%, bile salt 0.3%, basic feed 83.7%. […]

The test system of test [2] is mice fed with high-fat feed. Put plainly: Lipid-lowering function test (animal test): TG and TC of mice on high-fat feed. It is filed as in vivo, C57BL/6 mice. As to conditions: gavage, 8 weeks.
From the text: SPSS 22.0 Software was used to statistically analyze the original data of each experiment, and the ANOVA program was used to test the significance of the data.

The structures appear in SMILES notation. Marks after values point to notes of the source that are not given here.

On to `CC[C@H](C)C(=O)O[C@H]1C[C@@H](C)C=C2C=C[C@H](C)[C@H](CC[C@@H]3C[C@@H](O)CC(=O)O3)[C@H]21` [lovastatin], for which, in test [1], the HDL-C is 2.45 ± 0.20 ^D mmol/L and the LDL-C was 7.73 ± 3.07 ^b mmol/L. In test [2], the TC is listed as 0.024 ± 0.005 ^a mmol/g prot and the TG is given as 0.031 ± 0.019 ^B mmol/g prot.

For the origin of these results see US20250114415A1, “METHOD FOR LOWERING CHOLESTEROL AND LIPID LEVELS USING THE ANTRODIA CINNAMOMEA WATER-INSOLUBLE DIETARY FIBER” (UNIVERSITY OF SHANGHAI FOR SCIENCE AND TECHNOLOGY, priority 2020, published 2025).
